Experimental data reported in ChEMBL document CHEMBL5104169, “Design and synthesis of mogrol derivatives modified on a ring with anti-inflammatory and anti-proliferative activities” (Bioorg Med Chem Lett, 2022).
Activity calls are given as the source filed them. No cut-off for these calls is given here.

Tests used:
RAW264.7 [1] = assay: Cytotoxicity against mouse RAW264.7 cells at 10 uM measured after 24 hrs by CCK-8 assay relative to control; format: toxicity, cell-based; conditions: raw264.7, 24 h
A549 = assay: Antiproliferative activity against human A549 cells; format: functional, cell-based
NCI-H460 = assay: Antiproliferative activity against human NCI-H460 cells; format: functional, cell-based
NCI-H1299 = assay: Antiproliferative activity against human NCI-H1299 cells; format: functional, cell-based
NCI-H1975 = assay: Antiproliferative activity against human NCI-H1975 cells; format: functional, cell-based
RAW264.7 [2] = assay: Inhibition of LPS-induced NO production in mouse RAW264.7 cells at 10 uM relative to control; format: functional
RAW264.7 [3] = assay: Inhibition of LPS-induced NO production in mouse RAW264.7 cells; format: functional, cell-based
RAW264.7 [4] = assay: Antiinflammatory activity against mouse RAW264.7 cells assessed as decrease in LPS-induced TNF-alpha level at 10 uM measured by ELISA assay; format: functional, cell-based
RAW264.7 [5] = assay: Antiinflammatory activity against mouse RAW264.7 cells assessed as decrease in LPS-induced IL-6 level at 10 uM measured by ELISA assay; format: functional, cell-based
RAW264.7 [6] = assay: Antiinflammatory activity against LPS-induced mouse RAW264.7 cells assessed as decrease in phosphorylation levels of p65 at 2.5 to 10 uM and measured by Western blot analysis; format: functional, cell-based; conditions: dose 2.5-10 µM
RAW264.7 [7] = assay: Antiinflammatory activity against LPS-induced mouse RAW264.7 cells assessed as decrease in phosphorylation levels of IkBalpha at 2.5 to 10 uM and measured by Western blot analysis; format: functional, cell-based; conditions: dose 2.5-10 µM
RAW264.7 [8] = assay: Antiinflammatory activity against LPS-induced mouse RAW264.7 cells assessed as decrease in iNOS expression at 2.5 to 10 uM and measured by Western blot analysis; format: functional, cell-based; conditions: dose 2.5-10 µM
[9] = Cytotoxicity against mouse RAW264.7 cells assessed as cell viability at 10 uM measured after 24 hrs by CCK-8 assay relative to control; format: toxicity, cell-based; conditions: read-out: Activity
RAW264.7 [10] = assay: Inhibition of LPS-induced NO production in mouse RAW264.7 cells at 5 uM relative to control; format: functional

## C[C@H](CC[C@@H](O)C(C)(C)O)[C@H]1CC[C@@]2(C)[C@@H]3CC=C4[C@@H](Cc5cc6ccncc6nc5C4(C)C)[C@]3(C)[C@H](O)C[C@]12C
RAW264.7 [1]
  Activity: Toxic
A549
  IC50: > 30 µM
NCI-H460
  IC50: 23.4 µM
NCI-H1299
  IC50: > 30 µM
NCI-H1975
  IC50: > 30 µM

## C[C@H](CC[C@@H](O)C(C)(C)O)[C@H]1CC[C@@]2(C)[C@@H]3CC=C4[C@@H](C/C(=C\c5ccccc5)C(=O)C4(C)C)[C@]3(C)[C@H](O)C[C@]12C
RAW264.7 [1]
  Activity: Toxic
A549
  IC50: 10.7 µM
NCI-H460
  IC50: 16 µM
NCI-H1299
  IC50: 12 µM
NCI-H1975
  IC50: 13.6 µM

## COc1ccc2[nH]c3c(c2c1)C[C@@H]1C(=CC[C@@H]2[C@@]1(C)C(=O)C[C@]1(C)[C@@H]([C@H](C)CC[C@@H](O)C(C)(C)O)CC[C@@]21C)C3(C)C
RAW264.7 [2]
  inhibition at 10 µM: 87.6%
RAW264.7 [3]
  IC50: 5.05 µM
RAW264.7 [4]
  Activity: Active
RAW264.7 [5]
  Activity: Active
RAW264.7 [6]
  Activity: Active
RAW264.7 [7]
  Activity: Active
RAW264.7 [8]
  Activity: Active
A549
  IC50: 21.9 µM
NCI-H460
  IC50: > 30 µM
NCI-H1299
  IC50: > 30 µM
NCI-H1975
  IC50: 19 µM

## Cc1ccc2[nH]c3c(c2c1)C[C@@H]1C(=CC[C@@H]2[C@@]1(C)[C@H](O)C[C@]1(C)[C@@H]([C@H](C)CC[C@@H](O)C(C)(C)O)CC[C@@]21C)C3(C)C
RAW264.7 [2]
  inhibition at 10 µM: 45.1%
A549
  IC50: 22.6 µM
NCI-H460
  IC50: 31.5 µM
NCI-H1299
  IC50: > 30 µM
NCI-H1975
  IC50: > 30 µM

## C[C@H](CC[C@@H](O)C(C)(C)O)[C@H]1CC[C@@]2(C)[C@@H]3CC=C4[C@@H](Cc5c([nH]c6ccc(Cl)cc56)C4(C)C)[C@]3(C)[C@H](O)C[C@]12C
[9]
  viability at 24 h, 10 µM: > 95%
A549
  IC50: > 30 µM
NCI-H460
  IC50: 23.1 µM
NCI-H1299
  IC50: 19.1 µM
NCI-H1975
  IC50: 18.5 µM

## C=C1C(=O)O[C@@H]2C3O[C@]3(C)CC/C=C(\C)CC[C@@H]12 (stereo not given in full)
RAW264.7 [10]
  inhibition at 5 µM: 91.9%

## C[C@H](CC[C@@H](O)C(C)(C)O)[C@H]1CC[C@@]2(C)[C@@H]3CC=C4[C@@H](C/C(=C\c5ccncc5)C(=O)C4(C)C)[C@]3(C)[C@H](O)C[C@]12C
RAW264.7 [1]
  Activity: Toxic
A549
  IC50: 11.6 µM
NCI-H460
  IC50: 15 µM
NCI-H1299
  IC50: 13.3 µM
NCI-H1975
  IC50: 12.7 µM

## C[C@H](CC[C@@H](O)C(C)(C)O)[C@H]1CC[C@@]2(C)[C@@H]3CC=C4[C@@H](Cc5c([nH]c6ccccc56)C4(C)C)[C@]3(C)C(=O)C[C@]12C
RAW264.7 [2]
  inhibition at 10 µM: 78.2%
A549
  IC50: 27.9 µM
NCI-H460
  IC50: > 30 µM
NCI-H1299
  IC50: > 30 µM
NCI-H1975
  IC50: > 30 µM

## C[C@H](CC[C@@H](O)C(C)(C)O)[C@H]1CC[C@@]2(C)[C@@H]3CC=C4[C@@H](Cc5cc6cc(F)ccc6nc5C4(C)C)[C@]3(C)[C@H](O)C[C@]12C
RAW264.7 [1]
  Activity: Toxic
A549
  IC50: 7.55 µM
NCI-H460
  IC50: 16.3 µM
NCI-H1299
  IC50: 11.7 µM
NCI-H1975
  IC50: 14.7 µM

## C[C@H](CC[C@@H](O)C(C)(C)O)[C@H]1CC[C@@]2(C)[C@@H]3CC=C4[C@@H](C/C(=C\c5ccccc5)C(=O)C4(C)C)[C@]3(C)C(=O)C[C@]12C
RAW264.7 [1]
  Activity: Toxic
A549
  IC50: 16.1 µM
NCI-H460
  IC50: 32.5 µM
NCI-H1299
  IC50: > 30 µM
NCI-H1975
  IC50: > 30 µM

## C[C@H](CC[C@@H](O)C(C)(C)O)[C@H]1CC[C@@]2(C)[C@@H]3CC=C4[C@@H](C/C(=C\c5cccnc5)C(=O)C4(C)C)[C@]3(C)[C@H](O)C[C@]12C
RAW264.7 [1]
  Activity: Toxic
A549
  IC50: 11.1 µM
NCI-H460
  IC50: 11.1 µM
NCI-H1299
  IC50: 14.6 µM
NCI-H1975
  IC50: 13.4 µM

## C[C@H](CC[C@@H](O)C(C)(C)O)[C@H]1CC[C@@]2(C)[C@@H]3CC=C4[C@@H](Cc5cc6cc(Cl)ccc6nc5C4(C)C)[C@]3(C)[C@H](O)C[C@]12C
RAW264.7 [1]
  Activity: Toxic
A549
  IC50: 8.22 µM
NCI-H460
  IC50: 19 µM
NCI-H1299
  IC50: 13.2 µM
NCI-H1975
  IC50: 16.4 µM

## Cc1ccc(/C=C2\C[C@@H]3C(=CC[C@@H]4[C@@]3(C)[C@H](O)C[C@]3(C)[C@@H]([C@H](C)CC[C@@H](O)C(C)(C)O)CC[C@@]43C)C(C)(C)C2=O)cc1
RAW264.7 [1]
  Activity: Toxic
A549
  IC50: 9.91 µM
NCI-H460
  IC50: 13.7 µM
NCI-H1299
  IC50: > 30 µM
NCI-H1975
  IC50: 15.1 µM

## CC(C)c1ccc2[nH]c3c(c2c1)C[C@@H]1C(=CC[C@@H]2[C@@]1(C)[C@H](O)C[C@]1(C)[C@@H]([C@H](C)CC[C@@H](O)C(C)(C)O)CC[C@@]21C)C3(C)C
[9]
  viability at 24 h, 10 µM: > 95%
A549
  IC50: 25.4 µM
NCI-H460
  IC50: 25 µM
NCI-H1299
  IC50: > 30 µM
NCI-H1975
  IC50: > 30 µM

## C[C@H](CC[C@@H](O)C(C)(C)O)[C@H]1CC[C@@]2(C)[C@@H]3CC=C4[C@@H](Cc5c([nH]c6ccccc56)C4(C)C)[C@]3(C)[C@H](O)C[C@]12C
[9]
  viability at 24 h, 10 µM: > 95%
A549
  IC50: 16.4 µM
NCI-H460
  IC50: 18.3 µM
NCI-H1299
  IC50: 22.4 µM
NCI-H1975
  IC50: 23.2 µM

## C[C@H](CC[C@@H](O)C(C)(C)O)[C@H]1CC[C@@]2(C)[C@@H]3CC=C4[C@@H](CC[C@H](O)C4(C)C)[C@]3(C)[C@H](O)C[C@]12C [MOGROL]
RAW264.7 [2]
  inhibition at 10 µM: 17.4%
A549
  IC50: 28.6 µM
NCI-H460
  IC50: > 100 µM
NCI-H1299
  IC50: > 100 µM
NCI-H1975
  IC50: 87.1 µM

## O=c1[nH]cc(F)c(=O)[nH]1 [FLUOROURACIL]
A549
  IC50: 1.65 µM
NCI-H1299
  IC50: 3.53 µM
NCI-H1975
  IC50: 1.98 µM

## C[C@H](CC[C@@H](O)C(C)(C)O)[C@H]1CC[C@@]2(C)[C@@H]3CC=C4[C@@H](C/C(=C\c5ccc(Cl)cc5)C(=O)C4(C)C)[C@]3(C)[C@H](O)C[C@]12C
RAW264.7 [1]
  Activity: Toxic
A549
  IC50: 8.26 µM
NCI-H460
  IC50: 9.94 µM
NCI-H1299
  IC50: > 30 µM
NCI-H1975
  IC50: 13.6 µM

## CC(C)c1ccc2[nH]c3c(c2c1)C[C@@H]1C(=CC[C@@H]2[C@@]1(C)C(=O)C[C@]1(C)[C@@H]([C@H](C)CC[C@@H](O)C(C)(C)O)CC[C@@]21C)C3(C)C
RAW264.7 [2]
  inhibition at 10 µM: 57.4%
A549
  IC50: 22.2 µM
NCI-H460
  IC50: > 30 µM
NCI-H1299
  IC50: > 30 µM
NCI-H1975
  IC50: > 30 µM

## C[C@H](CC[C@@H](O)C(C)(C)O)[C@H]1CC[C@@]2(C)[C@@H]3CC=C4[C@@H](Cc5cc6ccccc6nc5C4(C)C)[C@]3(C)[C@H](O)C[C@]12C
RAW264.7 [1]
  Activity: Toxic
A549
  IC50: 17.2 µM
NCI-H460
  IC50: 18.9 µM
NCI-H1299
  IC50: 20 µM
NCI-H1975
  IC50: 18.7 µM

## Cc1ccc2[nH]c3c(c2c1)C[C@@H]1C(=CC[C@@H]2[C@@]1(C)C(=O)C[C@]1(C)[C@@H]([C@H](C)CC[C@@H](O)C(C)(C)O)CC[C@@]21C)C3(C)C
RAW264.7 [2]
  inhibition at 10 µM: 56.6%
A549
  IC50: 16.5 µM
NCI-H460
  IC50: > 30 µM
NCI-H1299
  IC50: 18.7 µM
NCI-H1975
  IC50: > 30 µM

## Cc1ccc(/C=C2\C[C@@H]3C(=CC[C@@H]4[C@@]3(C)C(=O)C[C@]3(C)[C@@H]([C@H](C)CC[C@@H](O)C(C)(C)O)CC[C@@]43C)C(C)(C)C2=O)cc1
RAW264.7 [1]
  Activity: Toxic
A549
  IC50: 22.1 µM
NCI-H460
  IC50: 24.3 µM
NCI-H1299
  IC50: > 30 µM
NCI-H1975
  IC50: 19.1 µM

## C[C@H](CC[C@@H](O)C(C)(C)O)[C@H]1CC[C@@]2(C)[C@@H]3CC=C4[C@@H](Cc5cc6cc(Br)ccc6nc5C4(C)C)[C@]3(C)[C@H](O)C[C@]12C
RAW264.7 [1]
  Activity: Toxic
A549
  IC50: 8.99 µM
NCI-H460
  IC50: > 30 µM
NCI-H1299
  IC50: 27 µM
NCI-H1975
  IC50: 25.7 µM

## C[C@H](CC[C@@H](O)C(C)(C)O)[C@H]1CC[C@@]2(C)[C@@H]3CC=C4[C@@H](C/C(=C\c5cccnc5)C(=O)C4(C)C)[C@]3(C)C(=O)C[C@]12C
RAW264.7 [1]
  Activity: Toxic
A549
  IC50: 12.6 µM
NCI-H460
  IC50: 16.5 µM
NCI-H1299
  IC50: 16.4 µM
NCI-H1975
  IC50: 12.7 µM
